{
  "source": "patent US8563554B2",
  "about": "“Deuterated pyrazinoisoquinoline compounds” (Concert Pharmaceuticals, Inc., priority 2009, dated 2013)",
  "origin": "cited, not measured here",
  "data": [
    {"smiles": "O=C(C1CCCCC1)N1CC(=O)N2CCc3ccccc3C2C1", "note": "(centres unmarked) [praziquantel, 2-(cyclohexylcarbonyl)-1,2,3,6,7,11b-hexahydro-4H-pyrazino[2,1-a]isoquinolin-4-one]", "values": [
      {"measurement": "dose excreted in the kidneys", "setting": "share of a dose of praziquantel", "value": "Approximately 80%"},
      {"measurement": "excreted in the form of metabolites", "setting": "share of the renally excreted dose present as metabolites", "value": "> 99", "unit": "%"}
    ]}
  ]
}
